The text below walks through data of patent publication US12595438B2, “Biodegradable quaternary ammonium compound” (GALAXY SURFACTANTS LTD., priority 2021, dated 2026).

Common to all, as to format: cell-based
In one experiment the test system is A. niger ATCC 16404. The experiment in a line: MIC determination, test tube method. As to conditions: tryptic soy broth, 22.5° C. for 48-72 hours. The source says: (§1) The Minimum Inhibitory concentration (MIC) is the lowest dilution which inhibits the growth of microorganism. MIC assays generate a value in μg/mL for the exact, lowest concentration of the antimicrobial agent that prevents the visible growth of bacteria. MIC was detected by using test tube method using different dilution in sterile tryptic soya broth (growth medium). (Ref.: https://www.ncbi.nlm.nih.gov/pmc/articles/PMC7470068/ this link describes about Test tube method of MIC)
(§2) • Working stock preparation: 1% in sterile D/W • Diluent: Sterile tryptic soy broth • Dilution range: 0.1% to 1%, further diluted to 100 ppm to 1000 ppm • Addition of culture: 0.1 mL of 18-24 hours old culture • Incubation temperature and time: • Bacteria: 37° C. for 24-48 hours • Y/M: 22.5° C. for 48-72 hours
(§3) Antimicrobial efficacy of diamidoquat was studied as per MIC standard protocol.

Another experiment has as its system S. aureus ATCC 6538. The experiment can be described thus: MIC determination, test tube method. The settings on record: tryptic soy broth, 37° C. for 24-48 hours.
From the text: as §1, §2, §3

For another experiment, the system named is C. albicans ATCC 10231. The experiment can be described thus: MIC determination, test tube method. As to conditions: tryptic soy broth, 22.5° C. for 48-72 hours.
From the text: as §1, §2, §3

A further experiment relates to E. coli ATCC 10142. The experiment can be described thus: MIC determination, test tube method. The settings on record: tryptic soy broth, 37° C. for 24-48 hours.
From the text: as §1, §2, §3

Another experiment relates to Test Organism. The experiment can be described thus: Overall MIC over all test organisms.
From the text: as §1, §2
(§4) The minimum inhibitory concentration (MIC) of Diamidoquat (DAQ), Benzalkonium chloride (BKC) and Esterquat (EQ) is shown in Table 1.
as §3

Another experiment deals with P. aeruginosa ATCC 9372. The experiment in a line: MIC determination, test tube method. The settings on record: tryptic soy broth, 37° C. for 24-48 hours.
From the text: as §1, §2, §4, §3

Take Benzalkonium chloride [BKC]: the MIC in the experiment on A. niger ATCC 16404 amounted to 0.7%; with S. aureus ATCC 6538, 0.6%; with C. albicans ATCC 10231, 0.7%; against E. coli ATCC 10142 it was 0.7%; in the experiment with P. aeruginosa ATCC 9372 it was 0.7%. Further, in the experiment with Test Organism, the “Overall MIC” value came to 0.7%.
